According to US9439432B2, “Phenylisoxazoline-based compound having herbicidal activity and use thereof” (MOGHU RESEARCH CENTER LTD, priority 2011, dated 2016):

Legend:
Format in all cases: in vivo
Rice [1] = assay: Pre-emergence treatment, phytotoxicity to rice; conditions: 500 g/ha, 4 weeks after spraying, scale 0 to 10 (0: no effects, 10: complete death)
Description: (§1) A rectangular plastic pot having a surface area of 300 cm^2 was filled with sandy loam soil and mixed bed soil which were mixed at a ratio of 1:1, and then, barnyardrass (Echinochloa crusgalli), large crabgrass (Digitaria sanguinalis), blackgrass (Alopecurus myosuroides), and annual bluegrass (Poa annua), which are grass weeds, were seeded thereto. In a pot that was prepared as described above, seeds of corn, soybean, cotton, wheat, and rice were seeded. The pots were irrigated, and one day after, chemicals were sprayed thereto. The spraying was performed by using a track sprayer (R&D Sprayer, USA) equipped with a Teejet 8002 (Spraying Systems Co., USA) nozzle, and a spraying amount was adjusted at 300 L/ha. A spraying solution was prepared by dissolving test materials or references in acetone and adding the same amount of 0.2%(v/v) tween 20 aqueous solution thereto. Application rates were 500, 250, 125, and 62.5 g/ha. The pots were placed in a greenhouse in which during day, the temperature was maintained at a temperature of 25 to 30° C., and during night, the temperature was maintained at a temperature of 15 to 25° C., and the pots were periodically irrigated. Four weeks after the spraying the test materials or References, effects and phytotoxicity of the respective weeds and crops were evaluated in a scale of 0 to 10 (0: no effects, 10: complete death), and results thereof are shown in Table 4 below.

Cotton [2] = assay: Post-emergence treatment, phytotoxicity to cotton; conditions: post-emergence (about 3 leaf stage), 1,000 g/ha, 4 weeks after spraying, scale 0 to 10 (0: no effects, 10: complete death)
Description: as §1
(§2) Pots containing crops and weeds were prepared in the same manner as in Example 7, and then, in the second week in which crops and weeds entered into about 3 leaf stage, the test materials and the references were sprayed thereto in the same manner as described above. The rates were 1,000, 500, 250, and 125 g/ha. Four weeks after the spraying of the test materials or the references, herbicidal efficacy and phytotoxicity to the respective weeds and crops were evaluated in a scale of 0 to 10 (0: no effects, 10: complete death).

Wheat [3] = assay: Pre-emergence treatment, phytotoxicity to wheat; conditions: 500 g/ha, 4 weeks after spraying, scale 0 to 10 (0: no effects, 10: complete death)
Description: as §1

Soybean [4] = assay: Post-emergence treatment, phytotoxicity to soybean; conditions: post-emergence (about 3 leaf stage), 1,000 g/ha, 4 weeks after spraying, scale 0 to 10 (0: no effects, 10: complete death)
Description: as §1, §2

Digitaria sanguinalis [5] = assay: Post-emergence treatment, herbicidal efficacy on large crabgrass; conditions: 4 weeks after spraying, scale 0 to 10
Description: as §1, §2

Corn [6] = assay: Pre-emergence treatment, phytotoxicity to corn; conditions: 500 g/ha, 4 weeks after spraying, scale 0 to 10 (0: no effects, 10: complete death)
Description: as §1

Alopecurus myosuroides [7] = assay: Post-emergence treatment, herbicidal efficacy on blackgrass; conditions: 4 weeks after spraying, scale 0 to 10
Description: as §1, §2

Echinochloa crusgalli [8] = assay: Pre-emergence treatment, herbicidal efficacy on barnyardgrass; conditions: 4 weeks after spraying
Description: as §1

Soybean [9] = assay: Pre-emergence treatment, phytotoxicity to soybean; conditions: 500 g/ha, 4 weeks after spraying, scale 0 to 10 (0: no effects, 10: complete death)
Description: as §1

Poa annua [10] = assay: Post-emergence treatment, herbicidal efficacy on annual bluegrass; conditions: 4 weeks after spraying, scale 0 to 10
Description: as §1, §2

Wheat [11] = assay: Post-emergence treatment, phytotoxicity to wheat; conditions: post-emergence (about 3 leaf stage), 1,000 g/ha, 4 weeks after spraying, scale 0 to 10 (0: no effects, 10: complete death)
Description: as §1, §2

Corn [12] = assay: Post-emergence treatment, phytotoxicity to corn; conditions: post-emergence (about 3 leaf stage), 1,000 g/ha, 4 weeks after spraying, scale 0 to 10 (0: no effects, 10: complete death)
Description: as §1, §2

Echinochloa crusgalli [13] = assay: Post-emergence treatment, herbicidal efficacy on barnyardgrass; conditions: 4 weeks after spraying, scale 0 to 10
Description: as §1, §2

Rice [14] = assay: Post-emergence treatment, phytotoxicity to rice; conditions: post-emergence (about 3 leaf stage), 1,000 g/ha, 4 weeks after spraying, scale 0 to 10 (0: no effects, 10: complete death)
Description: as §1, §2

Alopecurus myosuroides [15] = assay: Pre-emergence treatment, herbicidal efficacy on blackgrass; conditions: 4 weeks after spraying, scale 0 to 10
Description: as §1

Digitaria sanguinalis [16] = assay: Pre-emergence treatment, herbicidal efficacy on large crabgrass; conditions: 4 weeks after spraying, scale 0 to 10
Description: as §1

Cotton [17] = assay: Pre-emergence treatment, phytotoxicity to cotton; conditions: 500 g/ha, 4 weeks after spraying, scale 0 to 10 (0: no effects, 10: complete death)
Description: as §1

Poa annua [18] = assay: Pre-emergence treatment, herbicidal efficacy on annual bluegrass; conditions: 4 weeks after spraying, scale 0 to 10
Description: as §1

[19] = 500 g/ha, scale 0 to 10 (0: no effects, 10: complete death)

CC1(COCc2ccccc2F)CC(c2ccccc2[N+](=O)[O-])=NO1 (stereo not drawn) [Reference A]
6: Herbicidal efficacy, Echinochloa crusgalli (Echinochloa crusgalli [8]; 250 g/ha, scale 0 to 10) | Herbicidal efficacy, Digitaria sanguinalis (Digitaria sanguinalis [16]; 250 g/ha)
4: Herbicidal efficacy, Digitaria sanguinalis (Digitaria sanguinalis [5]; post-emergence, 500 g/ha)
2: Herbicidal efficacy, Alopecurus myosuroides (Alopecurus myosuroides [7]; post-emergence, 1,000 g/ha) | Herbicidal efficacy, Echinochloa crusgalli (Echinochloa crusgalli [8]; 125 g/ha, scale 0 to 10) | Herbicidal efficacy, Echinochloa crusgalli (Echinochloa crusgalli [13]; post-emergence, 250 g/ha) | Herbicidal efficacy, Digitaria sanguinalis (Digitaria sanguinalis [16]; 125 g/ha) | Herbicidal efficacy, Poa annua (Poa annua [18]; 125 g/ha)
9: Herbicidal efficacy, Poa annua (Poa annua [18]; 500 g/ha)
1: Phytotoxicity, Soybean (Soybean [4]) | Herbicidal efficacy, Digitaria sanguinalis (Digitaria sanguinalis [5]; post-emergence, 250 g/ha)
10: Herbicidal efficacy, Echinochloa crusgalli (Echinochloa crusgalli [8]; [19]) | Herbicidal efficacy, Alopecurus myosuroides (Alopecurus myosuroides [15]; 500 g/ha) | Herbicidal efficacy, Digitaria sanguinalis (Digitaria sanguinalis [16]; 500 g/ha)
3: Herbicidal efficacy, Poa annua (Poa annua [10]; post-emergence, 500 g/ha) | Herbicidal efficacy, Alopecurus myosuroides (Alopecurus myosuroides [15]; 250 g/ha)
7: Herbicidal efficacy, Echinochloa crusgalli (Echinochloa crusgalli [13]; post-emergence, 1,000 g/ha)
5: Herbicidal efficacy, Digitaria sanguinalis (Digitaria sanguinalis [5]; post-emergence, 1,000 g/ha) | Herbicidal efficacy, Poa annua (Poa annua [10]; post-emergence, 1,000 g/ha) | Herbicidal efficacy, Echinochloa crusgalli (Echinochloa crusgalli [13]; post-emergence, 500 g/ha) | Herbicidal efficacy, Poa annua (Poa annua [18]; 250 g/ha)
0: Phytotoxicity, Rice (Rice [1]) | Phytotoxicity, Cotton (Cotton [2]) | Phytotoxicity, Wheat (Wheat [3]) | Herbicidal efficacy, Digitaria sanguinalis (Digitaria sanguinalis [5]; post-emergence, 125 g/ha) | Phytotoxicity, Corn (Corn [6]) | Herbicidal efficacy, Alopecurus myosuroides (Alopecurus myosuroides [7]; post-emergence, 125 g/ha) | Herbicidal efficacy, Alopecurus myosuroides (Alopecurus myosuroides [7]; post-emergence, 250 g/ha) | Herbicidal efficacy, Alopecurus myosuroides (Alopecurus myosuroides [7]; post-emergence, 500 g/ha) | Herbicidal efficacy, Echinochloa crusgalli (Echinochloa crusgalli [8]; 62.5 g/ha, scale 0 to 10) | Phytotoxicity, Soybean (Soybean [9]) | Herbicidal efficacy, Poa annua (Poa annua [10]; post-emergence, 125 g/ha) | Herbicidal efficacy, Poa annua (Poa annua [10]; post-emergence, 250 g/ha) | Phytotoxicity, Wheat (Wheat [11]) | Phytotoxicity, Corn (Corn [12]) | Herbicidal efficacy, Echinochloa crusgalli (Echinochloa crusgalli [13]; post-emergence, 125 g/ha) | Phytotoxicity, Rice (Rice [14]) | Herbicidal efficacy, Alopecurus myosuroides (Alopecurus myosuroides [15]; 62.5 g/ha) | Herbicidal efficacy, Alopecurus myosuroides (Alopecurus myosuroides [15]; 125 g/ha) | Herbicidal efficacy, Digitaria sanguinalis (Digitaria sanguinalis [16]; 62.5 g/ha) | Phytotoxicity, Cotton (Cotton [17]) | Herbicidal efficacy, Poa annua (Poa annua [18]; 62.5 g/ha)

Cc1ccccc1C1=NOC(C)(COCc2ccccc2)C1 (stereo not drawn) [Reference C]
3: Herbicidal efficacy, Digitaria sanguinalis (Digitaria sanguinalis [5]; post-emergence, 250 g/ha) | Herbicidal efficacy, Alopecurus myosuroides (Alopecurus myosuroides [7]; post-emergence, 500 g/ha) | Herbicidal efficacy, Poa annua (Poa annua [10]; post-emergence, 500 g/ha) | Herbicidal efficacy, Echinochloa crusgalli (Echinochloa crusgalli [13]; post-emergence, 250 g/ha)
2: Herbicidal efficacy, Echinochloa crusgalli (Echinochloa crusgalli [8]; 62.5 g/ha, scale 0 to 10) | Herbicidal efficacy, Poa annua (Poa annua [10]; post-emergence, 250 g/ha) | Phytotoxicity, Corn (Corn [12]) | Herbicidal efficacy, Alopecurus myosuroides (Alopecurus myosuroides [15]; 125 g/ha) | Herbicidal efficacy, Poa annua (Poa annua [18]; 62.5 g/ha)
1: Herbicidal efficacy, Digitaria sanguinalis (Digitaria sanguinalis [5]; post-emergence, 125 g/ha) | Phytotoxicity, Corn (Corn [6]) | Phytotoxicity, Soybean (Soybean [9]) | Herbicidal efficacy, Echinochloa crusgalli (Echinochloa crusgalli [13]; post-emergence, 125 g/ha) | Phytotoxicity, Cotton (Cotton [17])
4: Herbicidal efficacy, Digitaria sanguinalis (Digitaria sanguinalis [5]; post-emergence, 500 g/ha) | Herbicidal efficacy, Poa annua (Poa annua [10]; post-emergence, 1,000 g/ha) | Herbicidal efficacy, Echinochloa crusgalli (Echinochloa crusgalli [13]; post-emergence, 500 g/ha) | Herbicidal efficacy, Alopecurus myosuroides (Alopecurus myosuroides [15]; 250 g/ha)
6: Herbicidal efficacy, Alopecurus myosuroides (Alopecurus myosuroides [15]; 500 g/ha) | Herbicidal efficacy, Digitaria sanguinalis (Digitaria sanguinalis [16]; 125 g/ha)
8: Herbicidal efficacy, Echinochloa crusgalli (Echinochloa crusgalli [8]; 250 g/ha, scale 0 to 10)
5: Herbicidal efficacy, Alopecurus myosuroides (Alopecurus myosuroides [7]; post-emergence, 1,000 g/ha) | Herbicidal efficacy, Echinochloa crusgalli (Echinochloa crusgalli [8]; 125 g/ha, scale 0 to 10) | Herbicidal efficacy, Poa annua (Poa annua [18]; 125 g/ha)
7: Herbicidal efficacy, Digitaria sanguinalis (Digitaria sanguinalis [5]; post-emergence, 1,000 g/ha) | Herbicidal efficacy, Echinochloa crusgalli (Echinochloa crusgalli [13]; post-emergence, 1,000 g/ha)
9: Herbicidal efficacy, Digitaria sanguinalis (Digitaria sanguinalis [16]; 250 g/ha) | Herbicidal efficacy, Poa annua (Poa annua [18]; 250 g/ha) | Herbicidal efficacy, Poa annua (Poa annua [18]; 500 g/ha)
10: Herbicidal efficacy, Echinochloa crusgalli (Echinochloa crusgalli [8]; [19]) | Herbicidal efficacy, Digitaria sanguinalis (Digitaria sanguinalis [16]; 500 g/ha)
0: Phytotoxicity, Rice (Rice [1]) | Phytotoxicity, Cotton (Cotton [2]) | Phytotoxicity, Wheat (Wheat [3]) | Phytotoxicity, Soybean (Soybean [4]) | Herbicidal efficacy, Alopecurus myosuroides (Alopecurus myosuroides [7]; post-emergence, 125 g/ha) | Herbicidal efficacy, Alopecurus myosuroides (Alopecurus myosuroides [7]; post-emergence, 250 g/ha) | Herbicidal efficacy, Poa annua (Poa annua [10]; post-emergence, 125 g/ha) | Phytotoxicity, Wheat (Wheat [11]) | Phytotoxicity, Rice (Rice [14]) | Herbicidal efficacy, Alopecurus myosuroides (Alopecurus myosuroides [15]; 62.5 g/ha) | Herbicidal efficacy, Digitaria sanguinalis (Digitaria sanguinalis [16]; 62.5 g/ha)
